The values that follow are results of earlier work, collected in patent US11999963B2, “Pseudomonas protegens and products thereof to control bacterial panicle blight of rice” (priority 2020, dated 2024).

For this series, the system named is Pythium ultimum. The note with it: Howell & Stipanovic, 1980; Maurhofer et al., 1994.

On to `O=C(c1cc(Cl)c(Cl)[nH]1)c1c(O)cccc1O` [Pyoluteorin, pyoluteorin], for which the “activity against Pythium ultimum” value is given as “had activity”.
